In patent US20090291971A1, “HETEROARYL ETHERS AND PROCESSES FOR THEIR PREPARATION” (Wyeth, priority 2007, published 2009):

Legend:
Format in all cases: biochemical
PI3K alpha = PI3K alpha (Homo sapiens, UniProt P42336); assay: PI3 Kinase Assay (PI3K alpha)
Experimental: (§1) PI3-Kinase reactions were performed in […], pH 7, […], and 25 μM ATP, with diC8-PI(4,5)P2 (Echelon, Salt Lake City Utah) as substrate. Nunc 384 well black polypropylene fluorescent plates were used for PI3K assays. Reactions were quenched by the addition of EDTA to a final concentration of […]. Final reaction volumes were […]. For evaluation of PI 3-K inhibitors, 5 ng of enzyme and 2.5 μM of substrate was used per […] reaction volume, and inhibitor concentrations ranged from 100 μM to […]; the final level of DMSO in reactions never exceeded 2%. Reactions were allowed to proceed for one hour at 25° C. After 1 hour, GST-tagged GRP1 (general receptor for phosphoinositides) PH domain fusion protein was added to a final concentration of 100 nM, and BODIPY-TMRI(1,3,4,5)P4 (Echelon) was also added to a final concentration of 5 nM. Final sample volumes were 25 μl with a final DMSO concentration of 0.8%. Assay Plates were read on Perkin-Elmer Envision plate readers with appropriate filters for Tamra [BODIPY-TMRI(1,3,4,5)P4]. Data obtained were used to calculate enzymatic activity and enzyme inhibition by inhibitor compounds.

PI3K gamma = PI3K gamma (Homo sapiens, UniProt P48736); assay: PI3 Kinase Assay (PI3K gamma); details: 1 h
Chain of PI3K gamma (P48736 whole entry, species assumed): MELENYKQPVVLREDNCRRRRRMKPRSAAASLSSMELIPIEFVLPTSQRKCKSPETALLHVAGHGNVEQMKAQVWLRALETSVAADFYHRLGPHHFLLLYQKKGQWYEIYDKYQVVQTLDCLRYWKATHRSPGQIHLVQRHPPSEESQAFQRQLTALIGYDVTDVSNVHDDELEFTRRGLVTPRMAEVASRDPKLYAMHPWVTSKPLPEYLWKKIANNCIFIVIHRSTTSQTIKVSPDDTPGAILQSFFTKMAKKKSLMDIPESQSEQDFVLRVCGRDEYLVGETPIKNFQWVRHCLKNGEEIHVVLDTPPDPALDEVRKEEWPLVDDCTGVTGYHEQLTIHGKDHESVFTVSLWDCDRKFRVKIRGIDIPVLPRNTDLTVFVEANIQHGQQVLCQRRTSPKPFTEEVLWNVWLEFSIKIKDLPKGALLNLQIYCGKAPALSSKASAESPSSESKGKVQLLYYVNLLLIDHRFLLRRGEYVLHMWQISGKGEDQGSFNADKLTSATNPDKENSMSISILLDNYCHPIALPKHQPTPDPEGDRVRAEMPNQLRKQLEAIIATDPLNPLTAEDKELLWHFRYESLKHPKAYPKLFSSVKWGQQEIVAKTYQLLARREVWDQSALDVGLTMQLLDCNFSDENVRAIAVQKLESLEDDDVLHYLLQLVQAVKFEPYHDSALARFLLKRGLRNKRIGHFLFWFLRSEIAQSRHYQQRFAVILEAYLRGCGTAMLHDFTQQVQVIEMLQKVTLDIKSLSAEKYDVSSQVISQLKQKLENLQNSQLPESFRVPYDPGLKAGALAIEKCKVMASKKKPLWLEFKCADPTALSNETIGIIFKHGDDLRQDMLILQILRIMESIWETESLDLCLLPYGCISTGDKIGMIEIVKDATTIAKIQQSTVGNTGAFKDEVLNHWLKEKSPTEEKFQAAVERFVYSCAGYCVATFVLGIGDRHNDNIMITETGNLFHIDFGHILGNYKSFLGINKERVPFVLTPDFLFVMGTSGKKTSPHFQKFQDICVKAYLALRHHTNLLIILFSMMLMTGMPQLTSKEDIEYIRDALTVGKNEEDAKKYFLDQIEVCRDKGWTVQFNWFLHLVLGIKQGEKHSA
Experimental: as §1

recombinant human B-Raf = biological target: T1, recombinant human B-Raf (Homo sapiens, UniProt P15056); assay: B-Raf Kinase Assay
T1 construct: Flag; GST; purchased Upstate; host or cells: Sf21 insect cells
T1 sequence (P15056 whole entry): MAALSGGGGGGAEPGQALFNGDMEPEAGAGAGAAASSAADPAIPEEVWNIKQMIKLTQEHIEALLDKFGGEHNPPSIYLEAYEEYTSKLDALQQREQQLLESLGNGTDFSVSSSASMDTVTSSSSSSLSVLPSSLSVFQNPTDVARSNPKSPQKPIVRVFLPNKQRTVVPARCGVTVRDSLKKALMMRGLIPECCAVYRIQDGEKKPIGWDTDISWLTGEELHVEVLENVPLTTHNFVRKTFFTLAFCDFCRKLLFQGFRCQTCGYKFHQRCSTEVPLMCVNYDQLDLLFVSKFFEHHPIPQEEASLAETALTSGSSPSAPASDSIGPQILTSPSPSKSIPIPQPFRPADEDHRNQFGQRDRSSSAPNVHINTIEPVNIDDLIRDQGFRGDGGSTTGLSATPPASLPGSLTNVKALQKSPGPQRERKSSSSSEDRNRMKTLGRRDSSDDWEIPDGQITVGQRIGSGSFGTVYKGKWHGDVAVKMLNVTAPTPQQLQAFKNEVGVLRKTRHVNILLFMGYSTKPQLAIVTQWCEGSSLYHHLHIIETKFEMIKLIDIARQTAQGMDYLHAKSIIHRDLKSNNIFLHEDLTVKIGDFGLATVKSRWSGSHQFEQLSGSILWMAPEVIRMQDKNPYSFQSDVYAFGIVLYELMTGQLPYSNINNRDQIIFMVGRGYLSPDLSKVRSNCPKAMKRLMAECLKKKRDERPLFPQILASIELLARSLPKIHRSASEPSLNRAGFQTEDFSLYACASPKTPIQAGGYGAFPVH
Experimental: Reagents: Flag/GST-tagged recombinant human B-Raf produced in Sf21 insect cells (purchased from Upstate), human Mek-1-GST, non-active recombinant protein produced in E. coli (from Upstate); and a phospho-MEK1 specific poly-clonal Ab from Cell Signaling Technology (cat. #9121).
• B-Raf-1 is used to phosphorylate GST-MEK1. MEK1 phosphorylation is measured by a phospho-specific antibody (from Cell Signaling Technology, cat. #9121) that detects phosphorylation of two serine residues at positions 217 and 221 on MEK1.
1. Assay Dilution Buffer (ADB): 20 mM MOPS, pH 7.2, 25 mM β-glycerol phosphate, 5 mM EGTA, 1 mM sodium orthovanadate, 1 mM dithiothreitol, 0.01% Triton X-100. 2. Magnesium/ATP Cocktail: ADB solution (minus Triton X-100) plus 200 μM cold ATP and 40 mM magnesium chloride. 3. Active Kinase: Active B-Raf: used at 0.2 nM per assay point. 4. Non-active GST-MEK1: Use at 2.8 nM final concentration). 5. TBST-Tris (50 mM, pH 7.5), NaCl (150 mM), Tween-20 (0.05%)
7. Anti pMEK Ab (Upstate) 8. Anti-rabbit Ab/Europium conjugate (Wallac)
1. Add 25 μl of ADB containing B-Raf and Mek per assay (i.e. per well of a 96 well plate) 2. Add 25 μl of 0.2 mM ATP and 40 mM magnesium chloride in Magnesium/ATP Cocktail. 3. Incubate for 45 minutes at RT with occasional shaking. 4. Transfer this mixture to an anti-GST Ab coated 96 well plate (Nunc Immunosorb plates coated o/n with a-GST. Plate freshly washed 3× with TBS-T before use. 5. Incubate o/n at […] in cold room. 6. Wash 3× with TBST, add Anti-Phospho MEK1 (1:1000, dilution depends upon lot) 7. Incubate for 60 minutes at RT in a shaking incubator 8. Wash 3× with TBST, add Anti-rabbit Ab/Europium conjugate (Wallac) (1:500, dilution depends upon lot) 9. Incubate for 60 minutes at RT on a platform shaker. 10. Wash plate 3× with TBS-T 11. Add 100 ul of Wallac Delfia Enhancement Solution and shake for 10 minutes. 12. Read plates in Wallac Victor model Plate Reader. 13. Collect data analyze in Excel for single point and IC50 determinations.

human recombinant MK2 = biological target: T2, human recombinant MK2 (Homo sapiens, UniProt P49137); assay: MK2 kinase ELISA based assay
T2 construct: human recombinant MK2 (25 nM) containing residues 41 through 353
T2 sequence (P49137 41-353): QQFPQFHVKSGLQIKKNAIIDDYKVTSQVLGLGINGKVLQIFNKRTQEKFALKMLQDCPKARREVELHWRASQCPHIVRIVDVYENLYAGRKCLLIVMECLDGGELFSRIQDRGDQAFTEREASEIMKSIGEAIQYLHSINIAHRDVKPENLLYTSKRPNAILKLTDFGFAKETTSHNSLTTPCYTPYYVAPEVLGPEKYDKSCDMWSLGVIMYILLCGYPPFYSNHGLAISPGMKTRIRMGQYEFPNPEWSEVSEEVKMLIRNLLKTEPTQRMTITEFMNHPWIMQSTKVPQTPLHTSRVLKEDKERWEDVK
Experimental: MK2 kinase activity was assessed using human recombinant MK2 (25 nM) containing residues 41 through 353 in an ELISA based assay. The kinase reaction was performed on 96-well streptavidin coated plates using a biotinylated 16-mer peptide as a substrate derived from LSP1 in 20 mM Hepes pH7.4, 10 mM MgCl2, 3 mM DTT, 1 uM ATP, 0.01% Triton X100, 2% DMSO and various compound concentrations in a final volume of 100 ul. The reaction was stopped after 30 min incubation at room temperature with 50 ul of 0.5M EDTA and washed 6 times in PBS 0.05% Tween 20. Polyclonal anti phospho-LSP1 antibodies was then added to the plate along with a Goat anti-Rabbit antibody labeled with europium in 20 mM MOPS, 150 mM NaCl, 0.025% Tween 20, 0.02% gelatin, 1% BSA for 1 hour at room temperature. The plate was then washed 6 times in PBS 0.05% Tween 20 and enhancement solution from Perkin Elmer was added before counting on a Victor 2 reader from Perkin Elmer.

human recombinant IRAK4 = biological target: T3, human recombinant IRAK4 (Homo sapiens, UniProt Q9NWZ3); assay: IRAK4 kinase ELISA based assay
T3 construct: human recombinant IRAK4 (4 nM) containing residues 154 through 460
T3 sequence (Q9NWZ3 154-460): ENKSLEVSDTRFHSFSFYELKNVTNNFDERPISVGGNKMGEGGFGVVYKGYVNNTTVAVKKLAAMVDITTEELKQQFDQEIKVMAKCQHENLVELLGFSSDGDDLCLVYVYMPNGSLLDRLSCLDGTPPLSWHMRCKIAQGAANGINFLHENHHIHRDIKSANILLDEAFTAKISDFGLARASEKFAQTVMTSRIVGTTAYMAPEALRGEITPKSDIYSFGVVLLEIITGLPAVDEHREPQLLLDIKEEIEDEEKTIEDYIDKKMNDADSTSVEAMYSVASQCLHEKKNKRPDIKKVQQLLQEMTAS
Experimental: IRAK4 kinase activity was assessed using human recombinant IRAK4 (4 nM) containing residues 154 through 460 in an ELISA based assay. The kinase reaction was performed on 96-well streptavidin coated plates using a biotinylated 11-mer peptide derived from MK2 in 20 mM Hepes pH7.4, 10 mM MgCl2, 3 mM DTT, 600 uM ATP, 0.01% Triton X100, 5% DMSO and various compound concentrations in a final volume of 100 ul. The reaction was stopped after 60 min incubation at room temperature with 50 ul of 0.5M EDTA and washed 6 times in PBS 0.05% Tween 20. A Rabbit polyclonal anti-phospho-threonine antibody was then added to the plate along with a Goat anti-Rabbit antibody labeled with europium in 20 mM MOPS, 150 mM NaCl, 0.025% Tween 20, 0.02% gelatin, 1% BSA for 1 hour at room temperature. The plate was then washed 6 times in PBS 0.05% Tween 20 and enhancement solution from Perkin Elmer was added before counting on a Victor 2 reader from Perkin Elmer.

Chain of PI3K alpha (P42336 whole entry, species assumed, the tested form may be a part): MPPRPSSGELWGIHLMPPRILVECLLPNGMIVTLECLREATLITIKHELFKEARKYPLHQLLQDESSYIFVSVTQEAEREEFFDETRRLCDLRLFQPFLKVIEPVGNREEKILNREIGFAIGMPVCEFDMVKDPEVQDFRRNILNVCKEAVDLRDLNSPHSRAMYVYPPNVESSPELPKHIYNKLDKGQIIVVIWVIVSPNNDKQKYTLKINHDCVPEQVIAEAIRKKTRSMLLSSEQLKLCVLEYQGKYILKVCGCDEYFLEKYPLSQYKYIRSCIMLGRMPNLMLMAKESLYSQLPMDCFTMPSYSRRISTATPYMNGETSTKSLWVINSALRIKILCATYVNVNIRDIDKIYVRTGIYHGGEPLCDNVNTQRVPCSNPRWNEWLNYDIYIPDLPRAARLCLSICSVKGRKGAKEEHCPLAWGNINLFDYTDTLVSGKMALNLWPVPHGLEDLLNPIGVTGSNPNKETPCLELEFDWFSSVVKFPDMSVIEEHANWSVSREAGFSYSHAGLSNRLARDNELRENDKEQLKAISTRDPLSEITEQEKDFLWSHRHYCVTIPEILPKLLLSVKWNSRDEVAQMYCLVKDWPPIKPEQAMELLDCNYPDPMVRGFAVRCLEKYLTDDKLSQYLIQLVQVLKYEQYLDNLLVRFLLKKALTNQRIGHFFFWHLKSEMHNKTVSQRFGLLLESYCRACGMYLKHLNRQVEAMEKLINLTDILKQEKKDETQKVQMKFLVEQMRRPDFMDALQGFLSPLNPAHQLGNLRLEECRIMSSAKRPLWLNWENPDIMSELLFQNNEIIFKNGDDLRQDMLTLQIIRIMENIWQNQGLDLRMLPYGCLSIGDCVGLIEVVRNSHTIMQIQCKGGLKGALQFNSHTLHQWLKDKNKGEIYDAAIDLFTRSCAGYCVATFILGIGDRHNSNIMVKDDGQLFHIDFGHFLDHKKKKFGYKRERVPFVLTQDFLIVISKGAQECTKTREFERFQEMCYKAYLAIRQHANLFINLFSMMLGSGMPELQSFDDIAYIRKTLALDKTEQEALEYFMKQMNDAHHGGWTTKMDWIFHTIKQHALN
Chain of PI3K alpha (P27986 whole entry partner, species assumed, the tested form may be a part): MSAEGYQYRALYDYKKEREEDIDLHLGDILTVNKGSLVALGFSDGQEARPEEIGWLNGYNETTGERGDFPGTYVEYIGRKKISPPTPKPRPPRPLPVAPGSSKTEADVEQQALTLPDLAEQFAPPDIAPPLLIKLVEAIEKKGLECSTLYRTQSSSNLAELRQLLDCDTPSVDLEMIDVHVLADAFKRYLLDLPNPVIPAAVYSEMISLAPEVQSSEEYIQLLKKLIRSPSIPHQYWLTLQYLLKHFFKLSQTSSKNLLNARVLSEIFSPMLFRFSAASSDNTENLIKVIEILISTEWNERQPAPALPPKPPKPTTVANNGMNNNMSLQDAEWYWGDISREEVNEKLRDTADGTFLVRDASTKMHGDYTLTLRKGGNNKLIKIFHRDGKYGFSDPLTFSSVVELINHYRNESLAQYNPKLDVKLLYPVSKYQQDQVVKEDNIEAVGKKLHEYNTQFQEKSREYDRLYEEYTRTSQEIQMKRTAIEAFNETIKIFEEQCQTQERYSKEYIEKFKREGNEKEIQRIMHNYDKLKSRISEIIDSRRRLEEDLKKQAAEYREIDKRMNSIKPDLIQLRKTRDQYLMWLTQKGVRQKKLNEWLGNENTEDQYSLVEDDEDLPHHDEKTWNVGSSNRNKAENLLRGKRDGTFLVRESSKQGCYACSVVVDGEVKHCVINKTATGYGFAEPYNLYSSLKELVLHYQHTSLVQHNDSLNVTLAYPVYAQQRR

Row | inhibition at 30 µM (PI3K alpha) [%] | inhibition at 30 µM (PI3K gamma) [%] | inhibition at 10 µM (recombinant human B-Raf) [%] | inhibition at 30 µM (human recombinant MK2) [%] | inhibition at 10 µM (human recombinant IRAK4) [%] | Compound
1 | 32 | < 10 |  |  |  | N#Cc1cccc(Oc2ncnc3sccc23)c1 [Example 32, 3-(Thieno[2,3-d]pyrimidin-4-yloxy)benzonitrile]
2 | 63 | 36 |  |  |  | COC(=O)c1sc2ncnc(Oc3ccccc3)c2c1C [Example 36, Methyl 5-methyl-4-phenoxythieno[2,3-d]pyrimidine-6-carboxylate]
3 | 24 | 16 |  |  |  | COC(=O)c1sc2ncnc(Oc3cccc([N+](=O)[O-])c3)c2c1C [Example 37, Methyl 5-methyl-4-(3-nitrophenoxy)thieno[2,3-d]pyrimidine-6-carboxylate]
4 | 14 | < 10 |  |  |  | O=[N+]([O-])c1cccc(Oc2ncnc3sccc23)c1 [Example 34, 4-(3-Nitrophenoxy)thieno[2,3-d]pyrimidine]
5 | 34 | 45 |  |  |  | CC(=O)c1ccc(Oc2ncnc3ccccc23)cc1 [Example 22, 1-(4-(Quinazolin-4-yloxy)phenyl)ethanone]
6 | 18 | < 10 |  |  |  | N#Cc1ccc(Oc2ncnc3ccccc23)cc1 [Example 24, 4-(Quinazolin-4-yloxy)benzonitrile]
7 | 26 | 11 |  |  |  | Cc1noc(C)c1Oc1ncnc2sccc12 [Example 35, 3,5-Dimethyl-4-(thieno[2,3-d]pyrimidin-4-yloxy)isoxazole]
8 | 22 | < 10 |  |  |  | COc1ncccc1Oc1ncnc2ccccc12 [Example 28, 4-(2-Methoxypyridin-3-yloxy)quinazoline]
9 | 68 | 21 | 21 |  |  | c1ccc2c(Oc3ccc4[nH]ccc4c3)ncnc2c1 [Example 29, 4-(1H-Indol-5-yloxy)quinazoline]
10 | 42 | 11 | 20 | 31 | 19 | Clc1ccc(Oc2ncnc3ccccc23)cn1 [Example 25, 4-(6-Chloropyridin-3-yloxy)quinazoline]
11 | 24 | < 10 |  |  |  | O=[N+]([O-])c1cccc(Oc2ncnc3ccccc23)c1 [Example 19, 4-(3-Nitrophenoxy)quinazoline]
12 | 72 | 44 |  |  |  | CC(=O)c1ccccc1Oc1ncc(Br)cn1 [compound 44, 1-[2-(5-Bromo-pyrimidin-2-yloxy)-phenyl]-ethanone]
13 | 36 | 6 |  |  |  | FC(F)(F)c1ccc(Oc2ncnc3ccccc23)cc1 [Example 21, 4-(4-(Trifluoromethyl)phenoxy)quinazoline]
14 | 87 | 55 | 14 | 34 | 39 | c1ccc2c(Oc3ccsc3)ncnc2c1 [Example 30, 4-(Thiophen-3-yloxy)quinazoline]
15 | 46 | < 10 |  |  |  | COc1ncccc1Oc1ccn(C)c(=O)n1 [Example 59, 4-(2-Methoxypyridin-3-yloxy)-1-methylpyrimidin-2(1H)-one]
16 | 24 | 15 |  | 32 | 21 | COC(=O)c1sc2ncnc(Oc3c(C)noc3C)c2c1C [Example 39, Methyl 4-(3,5-dimethylisoxazol-4-yloxy)-5-methylthieno[2,3-d]pyrimidine-6-carboxylate]
17 | 44 | < 10 |  |  |  | COc1ncccc1Oc1ncc(Br)cn1 [Example 57, 5-Bromo-2-(2-methoxypyridin-3-yloxy)pyrimidine]
18 | 65 | 4 |  |  |  | COc1ccc(Oc2ncnc3ccccc23)cc1 [Example 20, 4-(4-Methoxyphenoxy)quinazoline]
19 | 32 | < 10 | 17 |  |  | Cn1ccc(Oc2ccccc2)nc1=O [Example 58, 1-Methyl-4-phenoxypyrimidin-2(1H)-one]
20 | 40 | 23 |  |  |  | COC(=O)c1sc2ncnc(Oc3cccc(C#N)c3)c2c1C [Example 38, Methyl 4-(3-cyanophenoxy)-5-methylthieno[2,3-d]pyrimidine-6-carboxylate]
